# Measurements from a melting point compilation (Tetko et al.; mined from patent text by program, amines drawn as free bases though some values may be those of a salt).
row,Structure (SMILES),melting point
1,COc1cc2c(cc1OC)C(=Cc1ccccc1[N+](=O)[O-])C(=O)CC2,63 to 64 °C
2,CS(=O)(=O)c1ccc(-c2nn(Cc3ccccc3)c(=O)cc2-c2ccc(F)cc2)cc1,188 °C
3,Nc1c(-c2cc(Cl)ccc2O)c2c(C(F)(F)F)cc(C(F)(F)F)cc2[nH]c1=O,230 to 233 °C
4,BrCCCCCCCCCCCCN1CCN(c2ccccc2)CC1,26 to 28 °C
5,CCCCCCCN1C(=O)C2CC(c3ccc([N+](=O)[O-])cc3)(C2)C1=O,91 to 92 °C
6,CCC(=NOc1ccc(F)cc1)c1cc(Cl)ccc1NS(=O)(=O)C(F)(F)F,47 to 48 °C
7,CCCCOc1cc(CCC(=O)O)n(Cc2ccc(Cl)cc2Cl)n1,123 to 124 °C
8,CNC=Nc1ccc(-c2c[nH]cn2)cc1,189 to 190 °C
9,CCN1C(=O)N(SC(Cl)(Cl)Cl)C(=O)C1(C)C,141 to 142 °C
10,CC(=O)OCc1cccc([N+](=O)[O-])c1Br,60 to 63 °C
11,CN(C)CCCN=C1CC(c2ccc(Cl)cc2Cl)Cc2[nH]c3ccc(Cl)cc3c(=O)c21 (configuration not stated),168 to 170 °C
12,Cc1nc2cc3c(cc2o1)C1(CO3)C(=O)N(C(c2ccccc2)c2ccccc2)c2ccccc21 (configuration not stated),240 to 242 °C
13,Nc1n[nH]c2cccc(I)c12,153 °C
14,COC(=O)c1oc2ccc(OC)cc2c1OC(C)C,55 to 63 °C
15,CN1C(=O)CSc2ccc(Cl)cc21,119 to 121 °C
16,CC1CCN(C(=O)c2ccc3nonc3c2)CC1,86 to 87 °C
17,COc1cc(C2CCN(C[C@H](Oc3ncc4ccc(-c5ccccc5N(C)S(C)(=O)=O)n4n3)C(F)(F)F)CC2)ccc1N,85 to 96 °C
18,COc1cc(C(=O)O)ccc1Cn1ncc2ccc(NC(=O)CC3CCCC3)cc21,254 to 256 °C
19,CC(=O)Oc1ccc(P(c2ccccc2)c2ccc(OC(C)=O)cc2)cc1,118 to 120 °C
20,CON=C(CCC(=O)O)c1ccc(-c2ccc(Cl)cc2)cc1,183 to 186 °C
21,Cc1c[nH]c(Cc2ccccc2NC(=O)N2CCN(C)CC2)n1,177 to 179 °C
22,O=C1C(=O)c2ccccc2C2=C1SCC1(CCN(C3CCCCC3)CC1)O2,195 to 196 °C
23,CCC(NC(=O)C(F)F)c1ccc(Cl)c2nc3n(c12)CCCN3c1c(Cl)cc(Cl)cc1Cl (configuration not stated),211 to 213 °C
24,Cc1ccc(C(=O)c2cc(-c3ccccc3)c(N3CCOCC3)s2)cc1,198 °C
25,CCOc1nc(Nc2ccc(F)c(F)c2)nc(NC2CCN(S(=O)(=O)c3ccc(F)cc3)CC2)n1,240 to 242 °C
26,COc1ccc(-n2c(CC(=O)O)c(C(=O)O)c3cc(Oc4cccc(C(F)(F)F)c4)ccc32)cc1,210 °C

row,Structure (SMILES),melting point
1,CCc1sc(N)nc1-c1cc(Br)no1,151 to 152 °C
2,CC(=O)SCCC(=O)N1C(C(=O)O)CC2CCCCC21 (configuration not stated),131 to 133 °C
3,Clc1cccc(N2CCN(Cc3cn4cc(Cl)ccc4n3)CC2)c1,148 to 149 °C
4,Cc1ccccc1NC(=O)c1c(Cl)cccc1Cl,182 °C
5,OC1CSC(Oc2ccc(-c3cncc(F)c3)nc2)C(O)C1O (configuration not stated),207 to 217 °C
6,CCCC(OC(=O)c1ccncc1)C(=O)O (racemic),152 to 153 °C
7,CC(C)(C)OC(=O)N1CCC(=CC(=O)NCc2ccc(F)c(F)c2)CC1,102 to 105 °C
8,COC1=CC(=O)C2=C(C1=O)C(Cl)C(Cl)CC2 (configuration not stated),119 to 123 °C
9,CSc1nccc(-c2cccc(C(F)(F)F)c2)n1,89 to 90 °C
10,O=C(CC(=O)c1ccc(O)cc1O)c1cc(OCc2ccccc2)cc(OCc2ccccc2)c1,179 to 181 °C
11,O=c1[nH]c2ncc(-c3ccc(-c4ncc[nH]4)cc3)nc2n1CCC1CCOCC1,293 to 295 °C
12,COc1ccc(C2(C#Cc3ccccc3)CCCC(=O)C2)cc1OC1CCCC1 (configuration not stated),90 to 91 °C
13,CSc1cc2c(cc1C(F)(F)F)N(C(=O)Nc1cccc(OCCCN(C)C)c1)CC2,149 to 151 °C
14,CCCc1nc2c(N)nc3cc(OCC(=O)N4CCOCC4)ccc3c2s1,200 to 203 °C
15,O=C(Nc1cccc(I)c1)C1CC1,112 °C
16,CC(C)C[C@H](NC(=O)OCC1CCCCCC1)C(=O)N[C@@H](Cc1ccccc1)C(=O)CSCc1ccco1,77 to 79 °C
17,CCN(CC)C(C)CN1CCc2c(c(=O)oc3c(OC)c(OC)ccc23)C1 (configuration not stated),99 to 100 °C
18,CC(C)(C)OC(=O)NN=Cc1ccccc1,184 to 186 °C
19,Cc1nc2ccnn2c2c1CCN2Cc1ccccc1,130 °C
20,CC(C)C(NC(=O)c1ccccc1SSc1ccccc1C(=O)NC(C(=O)O)C(C)C)C(=O)O (configuration not stated),226 to 228 °C
21,CCCN(CCCc1c[nH]c2ccc(Cl)cc12)C1COc2c(F)ccc(C(N)=O)c2C1 (configuration not stated),148 to 154 °C
22,O=C(CCC#Cc1ccccn1)Nc1ccc(Cl)cc1,110 to 111 °C
23,CC(C)N1C(=O)C(NC(=O)CCC2CCCCC2)N=C(N(C)C)c2ccccc21 (configuration not stated),209 to 210 °C
24,O=C(c1ccc(F)c(F)c1)N1CCC[C@H](c2nc(-c3ccccc3)no2)C1,149 to 151 °C
25,CC1=Nc2ccccc2CC(c2cccs2)N1C (configuration not stated),106 to 108 °C
26,Nc1ccc(C(=O)c2ccncc2)cc1[N+](=O)[O-],294 to 295 °C

row,Structure (SMILES),melting point
1,O=C(O)Cc1c(-c2ccccc2)c2cc3c(cc2oc1=O)CCC3,216 to 218 °C
2,O=C(Nc1cccc(Oc2ccccc2)c1)c1ccn2c1CSC2c1cccnc1 (configuration not stated),144 °C
3,CCCCc1nc2cccc(CC#N)c2n1Cc1ccc(-c2ccccc2C#N)cc1,180 to 181 °C
4,C=CCOc1ccc2sc(=O)oc2c1,78 to 80 °C
5,O=C1c2c(-c3ccc(Cl)cc3)noc2CCC1CCCN1CCN(C(c2ccc(F)cc2)c2ccc(F)cc2)CC1 (configuration not stated),150 to 152 °C
6,CCN(CC)C(=O)c1nc(-c2ccccc2)nc2ccccc12,127 °C
7,Clc1ccc2oc(-c3ccc(N4CCCCC4)cc3)nc2c1,162 to 164 °C
8,Cc1c(CNCC(C)(C)C)[nH]c2c(F)c(NC(=O)c3ccc(OC[C@@H]4CCCO4)cc3)ccc12,159 to 160 °C
9,CCC(C#N)C(=O)Nc1ccc(C2=NNC(=O)CC2C)cc1 (configuration not stated),225 to 227 °C
10,COc1cc2c(c(Cl)c1Cl)CCCC2=O,150 to 151 °C
11,COC(=O)C(=CC(=CN(C)C)c1ccc(Cl)cc1[N+](=O)[O-])[N+](=O)[O-],193 to 197 °C
12,COC(=O)n1c(Br)c(Br)c(C#N)c1Br,120 to 122 °C
13,Cc1cc2c(c3ccc(=O)[nH]c13)OC(COS(C)(=O)=O)C2 (configuration not stated),200 to 203 °C
14,N#CCn1cc(-c2ccccc2)c(=O)c(-c2ccccc2)c1,221 to 224 °C
15,Brc1ccc2nc(-c3cccnc3)nn2c1,176 °C
16,NC1=NN(c2ccc(OCc3ccccc3)cc2)CC1,148 to 149 °C
17,OC1(F)OC(F)(F)C1(F)F (configuration not stated),90 to 91 °C
18,Cc1ccc(-c2c(C(N)=O)n(C)c(=O)c3ncccc23)cc1,> 310 °C
19,CCCCCCCCCCCCCCCC(=O)OCC(COC(=O)CCCCCCCCCCCCCCC)OCn1cnc2c(=O)[nH]c(N)nc21,150 to 154 °C
20,CC(C)c1cc(CCCOc2nn(C)cc2CC(=O)O)n(Cc2ccc(Cl)cc2Cl)n1,67 to 68 °C
21,Cc1nn(C)c(C2=NCCN2)c1[N+](=O)[O-],143 to 145 °C
22,COc1ccc(S(=O)(=O)C(Cc2ccccc2)C(=O)NO)cc1 (configuration not stated),180 °C
23,CC(c1cccc(NC(=O)NC2N=C(c3ccccc3F)c3ccccc3N(CC(=O)N3CC4CCC(CC4)C3)C2=O)c1)S(=O)(=O)O (racemic),> 250 °C
24,S=C=NCc1cc(-c2ccc(Cl)cc2)no1,74 to 76 °C
25,CCNC(=S)N1CCc2[nH]cnc2C1,185 °C
26,CNc1cccc(-c2ccc3c(C(N)=O)nn(-c4ccc(S(N)(=O)=O)cc4)c3c2)c1,159 to 160 °C

row,Structure (SMILES),melting point
1,Nc1ncc(Oc2ccc(Cl)cc2)c(N2CCNCC2)n1,93 to 95 °C
2,COC(=O)c1scc(-c2ccccc2)c1S(N)(=O)=O,172 to 175 °C
3,CCCCC(=NNC(N)=S)OCC,73 to 74.5 °C
4,Cc1c(CC(=O)O)oc2ccc(F)cc12,129 to 130 °C
5,O=C(O)c1cccc(OCCF)c1OCCF,104 to 105 °C
6,COC(=O)c1cn2c(NCCCCCCNS(=O)(=O)c3ccccc3[N+](=O)[O-])nsc2n1,148 to 149 °C
7,O=C(Nc1ccc(Br)c(C(F)(F)F)c1)c1cccnc1NCn1ccccc1=O,202 to 205 °C
8,Nc1cnc(Br)c(N)n1,176 to 178 °C
9,Nc1sc2c(c1C(=O)c1cccc(C(F)(F)F)c1)CCN(CCCc1ccccc1)C2,176 to 178 °C
10,COc1cc(Nc2nccc(-c3sc(N)nc3C)n2)cc(OC)c1,269 to 271 °C
11,O=C1NCN(c2ccccc2)C12CCN(CCCn1c(=O)[nH]c3cc(Cl)ccc31)CC2,234 °C
12,O=C(CCl)NCCCCOc1cc(CN2CCCCC2)ccn1,59 to 63 °C
13,O=C(Nc1cccc(O)c1)O[C@@H]1CN=C(c2ccccc2)O[C@H]1c1ccccc1 (racemic),170 °C
14,CCc1nnc2c(OC)nc3cc(OC)ccc3n12,184 to 188 °C
15,CC(C)NC(=O)CSCC(=O)c1ccc(-c2ccccc2)cc1,120 to 121 °C
16,Nc1ncnc2c1ncn2COCCN1C(=O)c2ccccc2C1=O,256 to 258 °C
17,COC(=O)c1ccccc1S(=O)(=O)NC(=O)N1NC(=O)N(O)C1OC (configuration not stated),180 °C
18,C=CCNC(=O)C=c1sc2n(c1=O)Cc1ccccc1N=2,275 to 276 °C
19,COc1ccc(CN2CCN(CC(=O)N3CC=C(c4cccc(C(F)(F)F)c4)n4ncc(C#N)c43)CC2)cc1,151 to 153 °C
20,COc1ccc(CC2SC(=O)NC2=O)c2c1N(Cc1ccc(C(=O)Nc3ccc(C(C)C)cc3)cc1)C(=O)CC2 (configuration not stated),243 to 244 °C
21,COC(=O)c1cc(O)cc(O)c1C,136 to 138 °C
22,Cc1ccc(S(=O)(=O)OCCc2cccs2)cc1,30 °C
23,Cc1cc(C)cc(P(c2ccccc2)c2ccccc2)c1,67 to 69 °C
24,CCCCCCCCCCCCSC(C)(C)C=NNC(=O)CCc1cc(C(C)(C)C)c(O)c(C(C)(C)C)c1,53 to 57 °C
